# Starred links: 1 amine or outer side, 2 acyl side, 3 side chain; linkers in the order of their positions; H or OH if unused. Non-standard residues stand in square brackets, D forms with d. Residues, ends and D or L forms follow the SMILES beside them. Groups on a side chain read outwards from the residue. *: point of attachment. C20 diacid = O=C(O)CCCCCCCCCCCCCCCCCCC(=O)*; γGlu = O=C(O)[C@H](CCC(=O)[*:2])N[*:1]; NMeI = CC[C@H](C)[C@H](NC)C(=O)O; Nle = CCCC[C@H](N)C(=O)O; AEEA = NCCOCCOCC(=O)O; Aib = CC(C)(N)C(=O)O
# Legend:
# hCRHR2b = biological target: T1, hCRHR2b (Homo sapiens, UniProt Q13324); assay: cAMP potency, transiently transfected CHO-K1 cells, hCRHR2b; type: cell-based; settings: transiently transfected CHO-K1, average n=3; read-out: Transient cell system EC50 (nM) hCRHR 2b
# T1 construct: DYK (FLAG); host or cells: CHO-K1, transiently transfected
# T1 sequence (Q13324 1-438 isoform Q13324-2): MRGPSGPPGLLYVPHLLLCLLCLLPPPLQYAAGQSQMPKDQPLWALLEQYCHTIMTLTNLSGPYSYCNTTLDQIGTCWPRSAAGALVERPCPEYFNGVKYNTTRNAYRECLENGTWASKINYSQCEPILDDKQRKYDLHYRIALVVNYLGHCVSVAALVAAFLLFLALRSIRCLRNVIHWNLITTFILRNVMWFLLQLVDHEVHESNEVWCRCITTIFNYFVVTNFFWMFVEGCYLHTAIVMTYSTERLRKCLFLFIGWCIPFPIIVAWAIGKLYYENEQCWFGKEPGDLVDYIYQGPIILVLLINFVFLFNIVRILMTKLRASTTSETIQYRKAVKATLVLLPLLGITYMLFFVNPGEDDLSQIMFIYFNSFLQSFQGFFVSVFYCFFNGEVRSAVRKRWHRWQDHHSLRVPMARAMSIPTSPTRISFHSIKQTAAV
# rCRHR2 = biological target: T2, rCRHR2 (Rattus norvegicus, UniProt P47866); assay: cAMP potency, transiently transfected CHO-K1 cells, rCRHR2; type: cell-based; settings: transiently transfected CHO-K1, average n=3; read-out: Transient cell system EC50 (nM) rCRHR 2
# T2 construct: DYK (FLAG); host or cells: CHO-K1, transiently transfected
# T2 sequence (P47866 whole entry): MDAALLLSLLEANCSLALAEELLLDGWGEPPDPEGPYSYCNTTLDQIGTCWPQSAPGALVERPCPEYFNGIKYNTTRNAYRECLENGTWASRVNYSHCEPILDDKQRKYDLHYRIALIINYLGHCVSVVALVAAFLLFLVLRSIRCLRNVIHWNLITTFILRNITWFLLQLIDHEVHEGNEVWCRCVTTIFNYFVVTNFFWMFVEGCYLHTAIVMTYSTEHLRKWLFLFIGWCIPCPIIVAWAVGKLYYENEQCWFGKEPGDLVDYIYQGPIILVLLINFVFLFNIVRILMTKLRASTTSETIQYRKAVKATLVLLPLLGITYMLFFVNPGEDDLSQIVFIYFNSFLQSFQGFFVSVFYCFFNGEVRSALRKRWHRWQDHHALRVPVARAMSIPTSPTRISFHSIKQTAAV
# Method: Selected peptides were tested for potency on different species (mouse, rat, porcine) using transiently transfected CHO-K1 cells using the general procedure.
# hCRHR2a = biological target: T3, hCRHR2a (Homo sapiens, UniProt Q13324); assay: cAMP potency, transiently transfected CHO-K1 cells, hCRHR2a; type: cell-based; settings: transiently transfected CHO-K1, average n=3; read-out: Transient cell system EC50 (nM) hCRHR 2a
# T3 construct: DYK (FLAG); host or cells: CHO-K1, transiently transfected
# T3 sequence (Q13324 1-411): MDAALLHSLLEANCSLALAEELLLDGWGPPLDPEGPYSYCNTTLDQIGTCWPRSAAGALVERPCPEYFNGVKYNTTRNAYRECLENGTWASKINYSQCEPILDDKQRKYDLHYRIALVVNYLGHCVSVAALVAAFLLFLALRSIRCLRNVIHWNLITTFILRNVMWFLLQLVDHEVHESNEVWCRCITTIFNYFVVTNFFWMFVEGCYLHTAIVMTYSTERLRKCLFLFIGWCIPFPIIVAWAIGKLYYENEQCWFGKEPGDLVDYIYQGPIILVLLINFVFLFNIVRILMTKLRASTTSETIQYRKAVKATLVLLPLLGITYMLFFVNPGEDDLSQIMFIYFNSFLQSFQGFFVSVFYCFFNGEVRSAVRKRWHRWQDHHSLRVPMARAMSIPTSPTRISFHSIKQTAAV
# hCRHR1 = biological target: T4, hCRHR1 (Homo sapiens, UniProt P34998); assay: cAMP potency, transiently transfected CHO-K1 cells, hCRHR1; type: cell-based; design: DYK (FLAG); host or cells: CHO-K1, transiently transfected; settings: transiently transfected CHO-K1, average n=3; read-out: Transient cell system EC50 (nM) hCR HR1
# T4 sequence (P34998 24-415): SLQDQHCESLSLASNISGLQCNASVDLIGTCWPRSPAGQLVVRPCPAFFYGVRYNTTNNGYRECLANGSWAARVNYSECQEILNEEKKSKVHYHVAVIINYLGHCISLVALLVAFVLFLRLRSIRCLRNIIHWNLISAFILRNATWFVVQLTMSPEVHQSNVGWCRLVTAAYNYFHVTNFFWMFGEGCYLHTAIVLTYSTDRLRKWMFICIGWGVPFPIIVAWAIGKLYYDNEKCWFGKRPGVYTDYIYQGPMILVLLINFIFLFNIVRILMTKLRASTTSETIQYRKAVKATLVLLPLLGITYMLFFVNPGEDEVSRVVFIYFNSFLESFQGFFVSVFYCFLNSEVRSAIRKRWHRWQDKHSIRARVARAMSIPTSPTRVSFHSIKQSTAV
# [1] = Dynamic Light Scattering (DLS) of peptide oligomerisation/particle formation; type: physicochemical; settings: for PD (%) / Rh (nm): average of three replica
# Method: Samples were prepared by dissolving 800 nmol of each peptide in 400 µl 50 mM phosphate pH 8.0 to a concentration of 2000 µM (ca 10 mg/ml). After fully dissolution for 2 hours on a rocking table, samples were adjusted to pH 7.5 and filtrated through a 0.2 µm Whatman Anotop filter. Comparators were commercially available liraglutide drug product (Victoza®, Novo Nordisk) pH 8.2, and an aliquot of this drug product adjusted to pH 6.7. These samples were filtrated through a 0.02 µm Whatman Anotop filter.
# Samples were pipetted as triplicate of 30 µl to an Aurora 384 well microtiter plate, which was centrifuged for 2 minutes at 2200 rpm and then sealed with a Thermo sealing tape 235307. DLS measurements were done in a Wyatt DynaPro platereader III with the following parameters:
# The microtiter plate was incubated in a Grant-bio Thermo Shaker PHMP-4 at 40°C with 700 rpm continuous shaking before subsequent DLS measurements. Data analysis was done using Wyatt Dynamics software ver. 7.10.1.21.
# Samples were prepared and measured as described in procedure. The hydrodynamic radii (Rh) and associated polydispersity (PD) resulting from cumulant analysis (assuming one species) are shown in the Table 8 as averages of three replica. T0 indicates the measurement at time zero after sample preparation; T5 indicates the measurements of five days of incubation as described above.
# [2] = Size exclusion chromatography for high molecular weight products (HMWP); type: physicochemical; settings: for HMWP formation (SEC analysis) T14-T0 (%): 14 days; for HMWP formation (SEC analysis) T28-T0 (%): 28 days
# Method: Dissolved samples were incubated for at least 2 h at room temperature on a rocking table. The main peak purity at time zero (T0) was determined using reversed phase chromatography. The samples were incubated at 40°C for 14 days (T14) and 28 days (T28). The samples were analyzed with reversed phase chromatography and size exclusion chromatography.
# Size exclusion chromatography (SEC) was used as an analysis for the formation of high molecular weight products (HMWP, covalent dimers, trimers etc.,). SEC analyses was performed on Thermo Dionex Ultimate UHPLC system with UV detection at 215 nm) equipped with a SEC column (Waters BEH 125Å, 1.7 µm, 300mm x 4.6). Analysis was performed by isocratic elution using 60% buffer B (0.1% TFA in 5:95 H2O: acetonitrile) in buffer A (0.1% TFA in 95:5 H2O: acetonitrile) at a column temperature of 60° C over 20 min. Flowrate was 0.3 mL/min.
# Chromatograms were integrated as HMWP (all peaks eluting before the main peak), main peak (assuming this is monomeric peptide) and if relevant LMWP (low molecular weight products, all peaks eluting after main peak). The amount of HMWP was reported as area relative to total area in percent.
# [3] = T0, time zero after sample preparation
# [4] = T5, five days incubation at 40°C with continuous shaking
Compound,EC50 (hCRHR2b),EC50 (rCRHR2),EC50 (hCRHR2a),EC50 (hCRHR1),"particle size / hydrodynamic radii (DLS) ([1]; 2000 µM, pH 7.5, five days incubation at 40°C with continuous shaking)","PD (%) [1, 3]","Rh (nm) [1, 3]","PD (%) [1, 4]","Rh (nm) [1, 4]","HMWP formation (SEC analysis) T14-T0 (%) ([2]; pH 7.0, 40°C)","HMWP formation (SEC analysis) T28-T0 (%) ([2]; pH 7.0, 40°C)","HMWP formation (SEC analysis) T14-T0 (%) ([2]; pH 7.5, 40°C)","HMWP formation (SEC analysis) T28-T0 (%) ([2]; pH 7.5, 40°C)","HMWP formation (SEC analysis) T14-T0 (%) ([2]; pH 8.0, 40°C)","HMWP formation (SEC analysis) T28-T0 (%) ([2]; pH 8.0, 40°C)"
CC[C@H](C)[C@H](N)C(=O)N[C@H](C(=O)N[C@@H](CC(C)C)C(=O)N[C@@H](CO)C(=O)N[C@@H](CC(C)C)C(=O)N[C@@H](CC(=O)O)C(=O)N[C@H](C(=O)N1CCC[C@H]1C(=O)N[C@H](C(=O)NCC(=O)N[C@@H](CC(C)C)C(=O)N[C@@H](CC(C)C)C(=O)N[C@@H](CCC(N)=O)C(=O)N[C@H](C(=O)N[C@@H](CC(C)C)C(=O)N[C@@H](CC(C)C)C(=O)N[C@@H](CCC(=O)O)C(=O)N[C@@H](CCC(N)=O)C(=O)N[C@@H](C)C(=O)N[C@@H](CCCNC(=N)N)C(=O)N[C@@H](C)C(=O)N[C@@H](CCCNC(=N)N)C(=O)N[C@@H](C)C(=O)N[C@@H](C)C(=O)N[C@@H](CCCNC(=N)N)C(=O)N[C@@H](CCC(=O)O)C(=O)N[C@@H](CCC(N)=O)C(=O)N[C@@H](C)C(=O)N[C@@H](CCCCNC(=O)COCCOCCNC(=O)COCCOCCNC(=O)CC[C@H](NC(=O)CC[C@H](NC(=O)CCCCCCCCCCCCCCCCCCC(=O)O)C(=O)O)C(=O)O)C(=O)N[C@H](C(=O)N[C@@H](CC(N)=O)C(=O)N[C@@H](C)C(=O)N[C@@H](CCC(=O)O)C(=O)N[C@H](C(=O)N[C@@H](CC(C)C)C(=O)N[C@@H](C)C(=O)N[C@@H](CCC(=O)O)C(=O)N[C@H](C(N)=O)C(C)C)[C@@H](C)CC)[C@@H](C)O)[C@@H](C)CC)[C@@H](C)CC)C(C)C)C(C)C [SEQ ID NO: 3] (H-IVLSLDVPIGLLQILLEQARARAAREQAK([AEEA-AEEA-γGlu-γGlu-C20 diacid])TNAEILAEV-NH2),0.0081 nM,0.07 nM,0.016 nM,> 1000 nM,–,–,–,–,–,–,–,–,–,–,–
CC[C@H](C)[C@H](NC)C(=O)N[C@H](C(=O)N[C@@H](CC(C)C)C(=O)N[C@@H](CO)C(=O)N[C@@H](CC(C)C)C(=O)N[C@@H](CC(=O)O)C(=O)N[C@H](C(=O)N1CCC[C@H]1C(=O)N[C@H](C(=O)NCC(=O)N[C@@H](CC(C)C)C(=O)N[C@@H](CC(C)C)C(=O)N[C@@H](CCC(N)=O)C(=O)N[C@H](C(=O)N[C@@H](CC(C)C)C(=O)N[C@@H](CC(C)C)C(=O)N[C@@H](CCC(=O)O)C(=O)N[C@@H](CCC(N)=O)C(=O)N[C@@H](C)C(=O)N[C@@H](CCCNC(=N)N)C(=O)N[C@@H](C)C(=O)N[C@@H](CCCNC(=N)N)C(=O)N[C@@H](C)C(=O)N[C@@H](C)C(=O)N[C@@H](CCCNC(=N)N)C(=O)N[C@@H](CCC(=O)O)C(=O)N[C@@H](CCC(N)=O)C(=O)N[C@@H](C)C(=O)N[C@H](C(=O)N[C@@H](CCCCNC(=O)COCCOCCNC(=O)COCCOCCNC(=O)CC[C@H](NC(=O)CC[C@H](NC(=O)CCCCCCCCCCCCCCCCCCC(=O)O)C(=O)O)C(=O)O)C(=O)N[C@@H](CC(N)=O)C(=O)N[C@@H](C)C(=O)N[C@@H](CCC(=O)O)C(=O)N[C@H](C(=O)N[C@@H](CC(C)C)C(=O)N[C@@H](C)C(=O)N[C@@H](CCC(=O)O)C(=O)N[C@H](C(N)=O)C(C)C)[C@@H](C)CC)[C@@H](C)O)[C@@H](C)CC)[C@@H](C)CC)C(C)C)C(C)C [SEQ ID NO: 6] (H-[NMeI]VLSLDVPIGLLQILLEQARARAAREQATK([AEEA-AEEA-γGlu-γGlu-C20 diacid])NAEILAEV-NH2),0.015 nM,0.13 nM,0.023 nM,> 1000 nM,formed larger particles and several species (multimodal),38.5%,5.8 nm,Multimodal,30.6 nm,-0.1%,0.1%,-0.4%,-0.4%,-0.2%,0.0%
CCCC[C@H](NC(=O)[C@@H](NC(=O)[C@H](CCC(=O)O)NC(=O)C(C)(C)NC(=O)[C@H](CC(N)=O)NC(=O)[C@@H](NC(=O)[C@H](CCCCNC(=O)COCCOCCNC(=O)COCCOCCNC(=O)CC[C@H](NC(=O)CC[C@H](NC(=O)CCCCCCCCCCCCCCCCCCC(=O)O)C(=O)O)C(=O)O)NC(=O)[C@H](C)NC(=O)[C@H](CCC(N)=O)NC(=O)[C@H](CCC(=O)O)NC(=O)[C@H](CCCNC(=N)N)NC(=O)[C@H](C)NC(=O)[C@H](C)NC(=O)[C@H](CCCNC(=N)N)NC(=O)[C@H](C)NC(=O)[C@H](CCCNC(=N)N)NC(=O)[C@H](C)NC(=O)[C@H](CCC(N)=O)NC(=O)[C@H](CO)NC(=O)[C@H](CC(C)C)NC(=O)[C@H](CC(C)C)NC(=O)[C@@H](NC(=O)[C@H](CCC(N)=O)NC(=O)[C@H](CC(C)C)NC(=O)[C@H](CC(C)C)NC(=O)CNC(=O)[C@@H](NC(=O)[C@@H]1CCCN1C(=O)[C@@H](NC(=O)[C@H](CC(=O)O)NC(=O)[C@H](CC(C)C)NC(=O)[C@H](CO)NC(=O)[C@H](CC(C)C)NC(=O)[C@@H](NC(=O)[C@@H](NC)[C@@H](C)CC)C(C)C)C(C)C)[C@@H](C)CC)[C@@H](C)CC)[C@@H](C)O)[C@@H](C)CC)C(=O)N[C@@H](C)C(=O)N[C@@H](CCC(=O)O)C(=O)N[C@H](C(N)=O)C(C)C [SEQ ID NO: 215] (H-[NMeI]VLSLDVPIGLLQILLSQARARAAREQAK([AEEA-AEEA-γGlu-γGlu-C20 diacid])TN[Aib]EI[Nle]AEV-NH2),0.016 nM,0.072 nM,0.013 nM,–,–,10.8%,5.6 nm,15.1%,5.9 nm,-0.3%,-0.3%,0.1%,0.3%,0.0%,-0.1%
